Data as given in patent US8648208B2, “Activating agent for peroxisome proliferator activated receptor” (Nippon Chemiphar Co. Ltd., priority 2008, dated 2014).

Legend:
hPPARα (LBD) = molecular target: T1, hPPARα (LBD) (Homo sapiens, UniProt Q07869); test: PPAR activating effect, GAL4-hPPARα LBD luciferase reporter transfection in CV-1 cells; type: cell-based
T1 construct: A receptor expression plasmid (pSG5-GAL4-hPPARα or γ or δ (LBD)); GAL4 (fusion partner); expressed in transfected cells; host or cells: CV-1 cells (ATCC)
T1 sequence (Q07869 239-466 limits assumed): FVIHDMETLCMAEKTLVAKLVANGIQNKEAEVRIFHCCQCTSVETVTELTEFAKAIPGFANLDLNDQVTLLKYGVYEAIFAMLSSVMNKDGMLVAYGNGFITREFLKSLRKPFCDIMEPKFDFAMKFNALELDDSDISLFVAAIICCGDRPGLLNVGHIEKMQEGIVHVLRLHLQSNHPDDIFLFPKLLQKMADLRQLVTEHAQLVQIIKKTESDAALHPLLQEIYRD

hPPARγ (LBD) = molecular target: T2, hPPARγ (LBD) (Homo sapiens, UniProt P37231); test: PPAR activating effect, GAL4-hPPARγ LBD luciferase reporter transfection in CV-1 cells; type: cell-based
T2 construct: A receptor expression plasmid (pSG5-GAL4-hPPARα or γ or δ (LBD)); GAL4 (fusion partner); expressed in transfected cells; host or cells: CV-1 cells (ATCC)
T2 sequence (P37231 238-503 limits assumed): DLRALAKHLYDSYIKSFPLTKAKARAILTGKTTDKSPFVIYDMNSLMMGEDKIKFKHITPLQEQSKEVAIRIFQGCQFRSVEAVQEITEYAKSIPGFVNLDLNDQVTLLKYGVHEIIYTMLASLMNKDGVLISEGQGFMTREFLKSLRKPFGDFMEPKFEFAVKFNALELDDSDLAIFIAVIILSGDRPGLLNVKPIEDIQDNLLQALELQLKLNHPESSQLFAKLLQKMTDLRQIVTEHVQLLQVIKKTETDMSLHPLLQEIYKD

hPPARδ (LBD) = molecular target: T3, hPPARδ (LBD) (Homo sapiens, UniProt Q03181); test: PPAR activating effect, GAL4-hPPARδ LBD luciferase reporter transfection in CV-1 cells; type: cell-based; parameters: activation: dose or concentration left out as unconfirmed
T3 construct: A receptor expression plasmid (pSG5-GAL4-hPPARα or γ or δ (LBD)); GAL4 (fusion partner); expressed in transfected cells; host or cells: CV-1 cells (ATCC)
T3 sequence (Q03181 211-439 limits assumed): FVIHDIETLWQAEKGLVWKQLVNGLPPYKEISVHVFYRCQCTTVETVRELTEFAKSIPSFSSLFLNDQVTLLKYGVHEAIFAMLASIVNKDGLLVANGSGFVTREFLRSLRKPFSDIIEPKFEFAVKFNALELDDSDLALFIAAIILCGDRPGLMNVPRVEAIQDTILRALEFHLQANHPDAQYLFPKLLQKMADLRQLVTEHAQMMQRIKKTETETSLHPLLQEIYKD

[1] = CV-1, 40 h, read-out: PPAR activity δ (relative value to control compound)

activation at 0.1 µM (hPPARα (LBD); CV-1, 40 h, Table 26, test compound 10^-7 M, 100% = GW-590735 10^-6 M, read-out: PPAR activity α (relative value to control compound))	activation at 0.1 µM (hPPARγ (LBD); CV-1, 40 h, Table 26, test compound 10^-7 M, 100% = Rosiglitazone 10^-5 M, read-out: PPAR activity γ (relative value to control compound))	activation at 0.1 µM (hPPARδ (LBD); [1])	melting point	PPAR activity α (relative value to control compound) (hPPARα (LBD); Table 24, 100% = GW-590735 10^-6 M, CV-1 cells, approx. 40 h)	EC50 (hPPARα (LBD); Table 25, CV-1 cells, method of Example 29, read-out: PPAR activity (EC50) α)	PPAR activity γ (relative value to control compound) (hPPARγ (LBD); Table 24, 100% = Rosiglitazone 10^-5 M, CV-1 cells, approx. 40 h)	EC50 (hPPARγ (LBD); Table 25, CV-1 cells, method of Example 29, read-out: PPAR activity (EC50) γ)	activation (hPPARδ (LBD); [1])	EC50 (hPPARδ (LBD); Table 25, CV-1 cells, method of Example 29, read-out: PPAR activity (EC50) δ)	selectivity of PPAR δ-activating effect (hPPARδ (LBD); compared with GW-501516, from EC50 α, γ, δ of Table 25)	PPAR activity α (relative value to control compound) (hPPARα (LBD); Table 26, test compound 10^-7 M, 100% = GW-590735 10^-6 M)	PPAR activity γ (relative value to control compound) (hPPARγ (LBD); Table 26, test compound 10^-7 M, 100% = Rosiglitazone 10^-5 M)	SMILES
16.4%	5.8%	77.2%	147 to 149 °C										CCCc1c(CCc2noc3cc(N(C)CC(=O)O)c(C)cc23)sc2cc(C(F)(F)F)ccc12 [Example 24, N-[5-Methyl-3-[2-[3-propyl-6-(trifluoromethyl)benzothiophen-2-yl]ethyl]benzisoxazol-6-yl]-N-methylglycine]
				Inactive	> 10 µM	Inactive	> 10 µM	94.2%	0.0013 µM	superior to that of the GW-501516			Cc1cc2c(CCc3sc4cc(C(F)(F)F)ccc4c3C(C)C)noc2cc1CCC(=O)O [Example 21, 3-[3-[2-[3-Isopropyl-6-(trifluoromethyl)benzothiophen-2-yl]-ethyl]-5-methylbenzisoxazol-6-yl]propionic acid]
		81.3%	153 to 156 °C								Inactive	Inactive	CC(C)c1c(CCc2noc3cc(N(C)CC(=O)O)ccc23)sc2cc(C(F)(F)F)ccc12 [Example 28, N-[3-[2-[3-Isopropyl-6-(trifluoromethyl)benzothiophen-2-yl]ethyl]benzisoxazol-6-yl]-N-methylglycine]
